Test results taken from patent US10633419B2, “Immunomodulators” (BRISTOL-MYERS SQUIBB COMPANY, priority 2014, dated 2020).
Positions of bridges follow the written chain, without caps; N, C: chain ends. Non-standard residues stand in square brackets, D forms with d. Residues, ends and D or L forms follow the SMILES beside them. *: point of attachment. X6 = O=C(O)CCCCCCCCCCCCCCCCC(=O)N[C@@H](CCC(=O)NCCCOCCOCCOCCCN*)C(=O)O; Trp(1-CH2COOH) = N[C@@H](Cc1cn(CC(=O)O)c2ccccc12)C(=O)O; X14 = O=C(O)CCCCCCCCCCNC(=O)CCC(=O)NCCCOCCOCCOCCCN*; X9 = O=C(O)CCCCCCCCCCCCCCCCC(=O)N[C@@H](CCN*)C(=O)O; Phe(4-F) = N[C@@H](Cc1ccc(F)cc1)C(=O)O; PEG6 = NCCOCCOCCOCCOCCOCCOCCC(=O)O; Hyp = O=C(O)[C@@H]1C[C@@H](O)CN1; Myristoyl = CCCCCCCCCCCCCC(=O)*; dHyp = O=C(O)[C@H]1C[C@H](O)CN1; Undecanoyl = CCCCCCCCCCC(=O)*; NMeNle = CCCC[C@H](NC)C(=O)O; Pip = O=C(O)[C@@H]1CCCCN1; NMeA = CN[C@@H](C)C(=O)O; Pra = C#CC[C@H](N)C(=O)O; Aun = NCCCCCCCCCCC(=O)O; Dab = NCC[C@H](N)C(=O)O; Dap = NC[C@H](N)C(=O)O

biological target: T1, PD-L1 (Homo sapiens, UniProt Q9NZQ7); experiment: PD-1/PD-L1 Homogenous Time-Resolved Fluorescence (HTRF) binding assay (PD-1-Ig/PD-L1-His); conditions: inhibition of PD-1-Ig binding to PD-L1-TVMV-His; value given as number; read-out: HTRF IC50
T1 construct: hPDL1(19-239)-TVMV-His; made in house; host or cells: HEK293T
Outline: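 Inhibitors pre-incubated 15 min with PD-L1-His (10 nM final), then PD-1-Ig (20 nM final) added for 15 min in dPBS/0.1% BSA/0.05% Tween-20. Eu-cryptate anti-Ig (1 nM) and APC anti-His (20 nM) added, 30 min equilibration, 665/620 nm HTRF ratio read.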

T1 sequence (Q9NZQ7 with tags, fused parts or gaps): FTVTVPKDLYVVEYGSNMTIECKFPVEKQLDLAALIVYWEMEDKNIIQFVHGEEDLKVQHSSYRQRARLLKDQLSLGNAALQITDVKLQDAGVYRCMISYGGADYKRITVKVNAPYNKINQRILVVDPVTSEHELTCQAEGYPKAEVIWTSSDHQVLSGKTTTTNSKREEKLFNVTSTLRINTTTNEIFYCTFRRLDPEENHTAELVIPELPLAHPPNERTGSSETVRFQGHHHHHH

Row | IC50 [nM] | SMILES
1 | 19 | CCCC[C@H]1C(=O)N(C)[C@@H](CCCC)C(=O)N[C@@H](CC(C)C)C(=O)N[C@H](C(=O)NCCCOCCOCCOCCCNC(=O)CCC(=O)NCCCCCCCCCCC(=O)O)CSCC(=O)N[C@@H](Cc2ccc(O)cc2)C(=O)N(C)[C@@H](C)C(=O)N[C@@H](CC(N)=O)C(=O)N2CCC[C@H]2C(=O)N[C@@H](CN)C(=O)N[C@@H](CCC(N)=O)C(=O)N2C[C@H](O)C[C@H]2C(=O)N[C@@H](Cc2c[nH]c3ccccc23)C(=O)N[C@@H](CO)C(=O)N[C@@H](Cc2cn(CC(=O)O)c3ccccc23)C(=O)N1C [Example 11086] ({CH2CO}-Y[NMeA]NP[Dap]Q[Hyp]WS[Trp(1-CH2COOH)][NMeNle][NMeNle]LC-X14; thioether N-14)
2 | 259 | CCCCCCCCCCCCCC(=O)NCCCC[C@H](NC(=O)[C@H](CC(=O)O)NC(=O)CCOCCOCCOCCOCCOCCOCCNC(=O)[C@H](CC(=O)O)NC(=O)CNC(=O)[C@@H]1CSCC(=O)N[C@@H](Cc2ccc(O)cc2)C(=O)N(C)[C@@H](C)C(=O)N[C@@H](CC(=O)O)C(=O)N2CCC[C@H]2C(=O)N[C@@H](Cc2cnc[nH]2)C(=O)N[C@@H](CC(C)C)C(=O)N2C[C@H](O)C[C@H]2C(=O)N[C@@H](Cc2c[nH]c3ccccc23)C(=O)N[C@@H](CO)C(=O)N[C@@H](Cc2c[nH]c3ccccc23)C(=O)N(C)[C@@H](CCCC)C(=O)N(C)[C@@H](CCCC)C(=O)N[C@@H](CCCNC(=N)N)C(=O)N1)C(N)=O [Example 11017] ({CH2CO}-Y[NMeA]DPHL[Hyp]WSW[NMeNle][NMeNle]RCGD[PEG6]DK(Myristoyl)-NH2; thioether N-14)
3 | 3 | CCCC[C@H]1C(=O)N(C)[C@@H](CCCC)C(=O)N[C@@H](CC(C)C)C(=O)N[C@H](C(=O)NCC(=O)N[C@@H](CC(=O)NCCCOCCOCCOCCCNC(=O)CC[C@H](NC(=O)CCCCCCCCCCCCCCCCC(=O)O)C(=O)O)C(=O)O)CSCC(=O)N[C@@H](Cc2ccc(O)cc2)C(=O)N(C)[C@@H](C)C(=O)N[C@@H](CC(N)=O)C(=O)N2CCC[C@H]2C(=O)N[C@@H](Cc2c[nH]cn2)C(=O)N[C@@H](CCC(=O)O)C(=O)N2C[C@H](O)C[C@H]2C(=O)N[C@@H](Cc2c[nH]c3ccccc23)C(=O)N[C@@H](CCN)C(=O)N[C@@H](Cc2cn(CC(=O)O)c3ccccc23)C(=O)N1C [Example 11179] ({CH2CO}-Y[NMeA]NPHE[Hyp]W[Dab][Trp(1-CH2COOH)][NMeNle][NMeNle]LCGD(X6)-OH; thioether N-14)

same assay, conditions: inhibition of PD-1-Ig binding to PD-L1-TVMV-His; value given as range class; read-out: HTRF IC50

Row | IC50 [nM] | SMILES
4 | 0.3 to 9.9 | CCCC[C@H]1C(=O)N(C)[C@@H](CCCC)C(=O)N[C@@H](CCC(=O)O)C(=O)N[C@H](C(=O)N[C@@H](Cc2cn(CCC(NC(=O)CCCCCCCCCCCCCCCCC(=O)O)C(=O)O)nn2)C(=O)O)CSCC(=O)N[C@@H](Cc2ccc(O)cc2)C(=O)N(C)[C@@H](C)C(=O)N[C@@H](CC(N)=O)C(=O)N2CCC[C@H]2C(=O)N[C@@H](CN)C(=O)N[C@@H](CC(C)C)C(=O)N2C[C@H](O)C[C@H]2C(=O)N[C@@H](Cc2c[nH]c3ccccc23)C(=O)N[C@@H](CCN)C(=O)N[C@@H](Cc2cn(CC(=O)O)c3ccccc23)C(=O)N1C (stereo partly shown) [Example 13130]
5 | 100 to 1600 | CCCCCCCCCCC(=O)NCCCC[C@H](NC(=O)[C@H](CC(=O)O)NC(=O)[C@@H]1CSCC(=O)N[C@@H](Cc2ccc(O)cc2)C(=O)N(C)[C@@H](C)C(=O)N[C@@H](CC(=O)O)C(=O)N2CCC[C@H]2C(=O)N[C@@H](Cc2cnc[nH]2)C(=O)N[C@@H](CC(C)C)C(=O)N2C[C@H](O)C[C@H]2C(=O)N[C@@H](Cc2c[nH]c3ccccc23)C(=O)N[C@@H](CO)C(=O)N[C@@H](Cc2c[nH]c3ccccc23)C(=O)N(C)[C@@H](CCCC)C(=O)N(C)[C@@H](CCCC)C(=O)N[C@@H](CCCNC(=N)N)C(=O)N1)C(N)=O [Example 11008] ({CH2CO}-Y[NMeA]DPHL[Hyp]WSW[NMeNle][NMeNle]RCDK(Undecanoyl)-NH2; thioether N-14)
6 | 0.3 to 9.9 | C#CC[C@H](NC(=O)CNC(=O)[C@@H]1CSCC(=O)N[C@@H](Cc2ccc(O)cc2)C(=O)N(C)[C@@H](C)C(=O)N[C@@H](CC(=O)O)C(=O)N2CCC[C@H]2C(=O)N[C@@H](Cc2c[nH]cn2)C(=O)N[C@@H](CCCCN)C(=O)N2C[C@H](O)C[C@H]2C(=O)N[C@@H](Cc2c[nH]c3ccccc23)C(=O)N[C@@H](CCCCN)C(=O)N[C@@H](Cc2cn(CC(=O)O)c3ccccc23)C(=O)N(C)[C@@H](CCCC)C(=O)N(C)[C@@H](CCCC)C(=O)N[C@@H](CCC(=O)O)C(=O)N1)C(=O)O [INT 1300Y] ({CH2CO}-Y[NMeA]DPHK[Hyp]WK[Trp(1-CH2COOH)][NMeNle][NMeNle]ECG[Pra]-OH; thioether N-14)
7 | 0.3 to 9.9 | CCCC[C@H]1C(=O)N(C)[C@@H](CCCC)C(=O)N[C@@H](CC(C)C)C(=O)N[C@H](C(=O)N[C@@H](CC(=O)O)C(=O)N[C@@H](CC(=O)NCCCOCCOCCOCCCNC(=O)CC[C@H](NC(=O)CCCCCCCCCCCCCCCCC(=O)O)C(=O)O)C(=O)O)CSCC(=O)N[C@@H](Cc2ccc(O)cc2)C(=O)N(C)[C@@H](C)C(=O)N[C@@H](CC(N)=O)C(=O)N2CCC[C@H]2C(=O)N[C@@H](CN)C(=O)N[C@@H](CC(C)C)C(=O)N2C[C@H](O)C[C@H]2C(=O)N[C@@H](Cc2c[nH]c3ccccc23)C(=O)N[C@@H](CCN)C(=O)N[C@@H](Cc2cn(CC(=O)O)c3ccccc23)C(=O)N1C [Example 11227] ({CH2CO}-Y[NMeA]NP[Dap]L[Hyp]W[Dab][Trp(1-CH2COOH)][NMeNle][NMeNle]LCDD(X6)-OH; thioether N-14)
8 | 10 to 99 | CCCC[C@H]1C(=O)N(C)[C@@H](CCCC)C(=O)N[C@@H](CC(C)C)C(=O)N[C@H](C(=O)N[C@@H](CC(=O)O)C(=O)N[C@@H](CCC(=O)NCCCOCCOCCOCCCNC(=O)CC[C@H](NC(=O)CCCCCCCCCCCCCCCCC(=O)O)C(=O)O)C(=O)O)CSCC(=O)N[C@@H](Cc2ccc(O)cc2)C(=O)N(C)[C@@H](C)C(=O)N[C@@H](CC(N)=O)C(=O)N2CCC[C@@H]2C(=O)N[C@@H](CN)C(=O)N[C@@H](CC(C)C)C(=O)N2C[C@@H](O)C[C@@H]2C(=O)N[C@@H](Cc2c[nH]c3ccccc23)C(=O)N[C@@H](CCN)C(=O)N[C@@H](Cc2cn(CC(=O)O)c3ccccc23)C(=O)N1C [Example 11228] ({CH2CO}-Y[NMeA]N[dP][Dap]L[dHyp]W[Dab][Trp(1-CH2COOH)][NMeNle][NMeNle]LCDE(X6)-OH; thioether N-14)
9 | 0.3 to 9.9 | CCCC[C@H]1C(=O)N(C)[C@@H](CCCC)C(=O)N[C@@H](CCC(=O)O)C(=O)N[C@H](C(=O)NCC(=O)N[C@@H](Cc2cn(CC[C@H](NC(=O)CCCCCCCCCCCCCCC(=O)O)C(=O)O)nn2)C(=O)NCC(N)=O)CSCC(=O)N[C@@H](Cc2ccc(O)cc2)C(=O)N(C)[C@@H](C)C(=O)N[C@@H](CC(=O)O)C(=O)N2CCC[C@H]2C(=O)N[C@@H](Cc2c[nH]cn2)C(=O)N[C@@H](CCCCN)C(=O)N2C[C@H](O)C[C@H]2C(=O)N[C@@H](Cc2c[nH]c3ccccc23)C(=O)N[C@@H](CCCCN)C(=O)N[C@@H](Cc2c[nH]c3ccccc23)C(=O)N1C [Example 14064]
10 | 10 to 99 | CCCC[C@H]1C(=O)N(C)[C@@H](CCCC)C(=O)N[C@@H](CC(C)C)C(=O)N[C@H](C(=O)NCC(=O)NCC(=O)NCC(=O)NCCCCCCCCCCC(=O)O)CSCC(=O)N[C@@H](Cc2ccc(O)cc2)C(=O)N(C)[C@@H](C)C(=O)N[C@@H](CC(=O)O)C(=O)N2CCC[C@H]2C(=O)N[C@@H](Cc2cnc[nH]2)C(=O)N[C@@H](CCC(=O)O)C(=O)N2C[C@H](O)C[C@H]2C(=O)N[C@@H](Cc2c[nH]c3ccccc23)C(=O)N[C@@H](CCN)C(=O)N[C@@H](Cc2cn(CC(=O)O)c3ccccc23)C(=O)N1C [Example 11098] ({CH2CO}-Y[NMeA]DPHE[Hyp]W[Dab][Trp(1-CH2COOH)][NMeNle][NMeNle]LCGGG[Aun]-OH; thioether N-14)
11 | 0.3 to 9.9 | CCCC[C@H]1C(=O)N(C)[C@@H](CCCC)C(=O)N[C@@H](CC(C)C)C(=O)N[C@H](C(=O)NCC(=O)N[C@@H](CC(=O)O)C(=O)NCCCOCCOCCOCCCNC(=O)CC[C@H](NC(=O)CCCCCCCCCCCCCCCCC(=O)O)C(=O)O)CSCC(=O)N[C@@H](Cc2ccc(F)cc2)C(=O)N2CCCC[C@H]2C(=O)N[C@@H](CC(=O)O)C(=O)N2CCC[C@H]2C(=O)N[C@@H](CN)C(=O)N[C@@H](CCC(=O)O)C(=O)N2C[C@H](O)C[C@H]2C(=O)N[C@@H](Cc2c[nH]c3ccccc23)C(=O)N[C@@H](CCN)C(=O)N[C@@H](Cc2cn(CC(=O)O)c3ccccc23)C(=O)N1C [Example 11264] ({CH2CO}-[Phe(4-F)][Pip]DP[Dap]E[Hyp]W[Dab][Trp(1-CH2COOH)][NMeNle][NMeNle]LCGD-X6; thioether N-14)
12 | 10 to 99 | CCCC[C@H]1C(=O)N(C)[C@@H](CCCC)C(=O)N[C@@H](CC(C)C)C(=O)N[C@H](C(=O)NCC(=O)N[C@@H](CCC(=O)NCC[C@H](NC(=O)CCCCCCCCCCCCCCCCC(=O)O)C(=O)O)C(=O)O)CSCC(=O)N[C@@H](Cc2ccc(F)cc2)C(=O)N2CCCC[C@H]2C(=O)N[C@@H](CC(=O)O)C(=O)N2CCC[C@H]2C(=O)N[C@@H](CN)C(=O)N[C@@H](CC(C)C)C(=O)N2C[C@H](O)C[C@H]2C(=O)N[C@@H](Cc2c[nH]c3ccccc23)C(=O)N[C@@H](CCN)C(=O)N[C@@H](Cc2cn(CC(=O)O)c3ccccc23)C(=O)N1C [Example 13148] ({CH2CO}-[Phe(4-F)][Pip]DP[Dap]L[Hyp]W[Dab][Trp(1-CH2COOH)][NMeNle][NMeNle]LCGE(X9)-OH; thioether N-14)
13 | 0.3 to 9.9 | CCCC[C@H]1C(=O)N(C)[C@@H](CCCC)C(=O)N[C@@H](CC(C)C)C(=O)N[C@H](C(=O)NCC(=O)N[C@@H](CC(=O)O)C(=O)NCC(=O)NCCCCCCCCCCC(=O)O)CSCC(=O)N[C@@H](Cc2ccc(O)cc2)C(=O)N(C)[C@@H](C)C(=O)N[C@@H](CC(N)=O)C(=O)N2CCC[C@H]2C(=O)N[C@@H](CN)C(=O)N[C@@H](CC(C)C)C(=O)N2C[C@H](O)C[C@H]2C(=O)N[C@@H](Cc2c[nH]c3ccccc23)C(=O)N[C@@H](CCN)C(=O)N[C@@H](Cc2cn(CC(=O)O)c3ccccc23)C(=O)N1C [Example 11099] ({CH2CO}-Y[NMeA]NP[Dap]L[Hyp]W[Dab][Trp(1-CH2COOH)][NMeNle][NMeNle]LCGDG[Aun]-OH; thioether N-14)
